ChEMBL document CHEMBL3632483, “Synthesis and pharmacological evaluation of piperidine (piperazine)-substituted benzoxazole derivatives as multi-target antipsychotics” (Bioorg Med Chem Lett, 2015)

Tests used:
D(2) dopamine receptor = D(2) dopamine receptor (Rattus norvegicus, UniProt P61169); experiment: Displacement of [3H]spiperone from dopaminergic D2 receptor in rat striatum homogenates after 60 mins by liquid scintillation counting
[1] = target: 5-hydroxytryptamine receptor 2A (Rattus norvegicus, UniProt P14842); experiment: Displacement of [3H]ketanserine from 5-HT2A receptor in rat cerebral cortex homogenates after 60 mins by liquid scintillation counting; assay type: tissue-based
[2] = target: T1, Adrenergic receptor alpha-1 (Rattus norvegicus, UniProt P15823+P23944+P43140); experiment: Displacement of [3H]prazosin from adrenergic alpha1 receptor in rat cerebral cortex homogenates after 60 mins by liquid scintillation counting; assay type: tissue-based
T1 sequence (P15823 whole entry): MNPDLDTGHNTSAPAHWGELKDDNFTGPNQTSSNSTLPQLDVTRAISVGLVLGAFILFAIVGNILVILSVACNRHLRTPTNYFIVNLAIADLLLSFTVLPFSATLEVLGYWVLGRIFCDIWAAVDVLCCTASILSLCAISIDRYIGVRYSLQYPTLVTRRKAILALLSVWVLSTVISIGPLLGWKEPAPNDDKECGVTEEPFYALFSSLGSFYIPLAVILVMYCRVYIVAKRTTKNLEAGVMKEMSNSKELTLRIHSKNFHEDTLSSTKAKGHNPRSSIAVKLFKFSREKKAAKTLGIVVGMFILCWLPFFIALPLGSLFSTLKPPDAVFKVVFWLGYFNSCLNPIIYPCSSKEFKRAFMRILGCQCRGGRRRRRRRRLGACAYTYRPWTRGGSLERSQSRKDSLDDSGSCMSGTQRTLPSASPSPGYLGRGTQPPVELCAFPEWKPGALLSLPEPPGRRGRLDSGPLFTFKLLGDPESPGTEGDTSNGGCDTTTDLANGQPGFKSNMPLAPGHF
T1 sequence (P23944 whole entry): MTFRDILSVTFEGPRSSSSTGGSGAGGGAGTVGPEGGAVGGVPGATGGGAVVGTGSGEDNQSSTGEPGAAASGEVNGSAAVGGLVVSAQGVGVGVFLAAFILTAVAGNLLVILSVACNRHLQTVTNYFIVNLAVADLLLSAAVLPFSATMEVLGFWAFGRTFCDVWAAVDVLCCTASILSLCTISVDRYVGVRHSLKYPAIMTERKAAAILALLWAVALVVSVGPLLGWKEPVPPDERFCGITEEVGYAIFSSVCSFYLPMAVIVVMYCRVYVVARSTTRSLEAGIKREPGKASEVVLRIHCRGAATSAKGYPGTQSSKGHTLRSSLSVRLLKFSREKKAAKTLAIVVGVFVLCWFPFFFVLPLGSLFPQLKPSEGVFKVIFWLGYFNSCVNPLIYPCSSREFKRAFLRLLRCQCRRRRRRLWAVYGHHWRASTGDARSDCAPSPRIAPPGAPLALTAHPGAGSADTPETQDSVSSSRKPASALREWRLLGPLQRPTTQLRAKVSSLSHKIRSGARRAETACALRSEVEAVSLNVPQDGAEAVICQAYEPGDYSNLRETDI
T1 sequence (P43140 whole entry): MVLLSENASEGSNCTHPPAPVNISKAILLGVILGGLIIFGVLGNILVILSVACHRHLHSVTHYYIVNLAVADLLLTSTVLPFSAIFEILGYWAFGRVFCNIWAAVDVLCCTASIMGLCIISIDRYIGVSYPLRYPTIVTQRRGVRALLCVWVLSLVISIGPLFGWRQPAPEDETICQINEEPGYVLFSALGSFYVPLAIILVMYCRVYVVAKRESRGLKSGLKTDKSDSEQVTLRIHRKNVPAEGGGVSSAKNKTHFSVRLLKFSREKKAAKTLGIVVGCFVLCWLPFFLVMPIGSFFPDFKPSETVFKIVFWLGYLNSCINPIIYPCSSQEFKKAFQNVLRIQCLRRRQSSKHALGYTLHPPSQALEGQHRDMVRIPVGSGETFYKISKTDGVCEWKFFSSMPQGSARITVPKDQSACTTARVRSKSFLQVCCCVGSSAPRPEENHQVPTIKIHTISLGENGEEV

[3] = target: T2, 5-hydroxytryptamine receptor 2C (Rattus norvegicus, UniProt P08909); experiment: Displacement of [3H]mesulergine from 5-HT2C receptor in rat cerebral cortex homogenates after 60 mins by liquid scintillation counting; assay type: tissue-based
T2 sequence (P08909 whole entry): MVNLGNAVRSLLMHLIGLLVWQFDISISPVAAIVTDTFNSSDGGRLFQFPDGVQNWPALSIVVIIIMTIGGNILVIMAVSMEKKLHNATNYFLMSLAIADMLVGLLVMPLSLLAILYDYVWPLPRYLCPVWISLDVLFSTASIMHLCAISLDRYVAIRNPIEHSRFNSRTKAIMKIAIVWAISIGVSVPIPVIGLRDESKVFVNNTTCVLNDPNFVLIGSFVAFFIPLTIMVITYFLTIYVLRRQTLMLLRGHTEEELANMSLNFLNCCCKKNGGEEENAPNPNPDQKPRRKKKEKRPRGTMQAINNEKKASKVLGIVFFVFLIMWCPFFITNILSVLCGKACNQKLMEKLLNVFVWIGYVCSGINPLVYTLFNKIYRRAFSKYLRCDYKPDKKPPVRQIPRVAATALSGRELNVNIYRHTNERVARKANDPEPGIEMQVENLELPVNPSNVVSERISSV

[4] = Acute toxicity in Sprague-Dawley rat; assay type: organism-based; settings: in vivo
[5] = target: 5-hydroxytryptamine receptor 7 (Rattus norvegicus, UniProt P32305); experiment: biochemical
Chain of 5-hydroxytryptamine receptor 7 (P32305 whole entry): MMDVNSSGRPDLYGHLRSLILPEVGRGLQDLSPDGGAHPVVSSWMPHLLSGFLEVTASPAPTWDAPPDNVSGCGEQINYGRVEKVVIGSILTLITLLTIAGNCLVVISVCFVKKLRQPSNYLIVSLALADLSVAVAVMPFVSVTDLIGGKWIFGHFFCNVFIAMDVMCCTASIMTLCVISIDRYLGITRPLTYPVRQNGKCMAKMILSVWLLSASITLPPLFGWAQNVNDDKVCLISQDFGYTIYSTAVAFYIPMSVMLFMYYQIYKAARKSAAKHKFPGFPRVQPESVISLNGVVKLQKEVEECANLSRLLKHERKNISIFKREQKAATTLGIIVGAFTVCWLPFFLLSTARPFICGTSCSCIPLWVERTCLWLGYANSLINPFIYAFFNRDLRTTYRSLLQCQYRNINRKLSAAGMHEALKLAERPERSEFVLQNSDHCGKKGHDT
Description: Displacement of [3H]-5-CT from 5-HT7 receptor in rat hypothalamus homogenates after 120 mins by liquid scintillation counting

Chain of D(2) dopamine receptor (P61169 whole entry): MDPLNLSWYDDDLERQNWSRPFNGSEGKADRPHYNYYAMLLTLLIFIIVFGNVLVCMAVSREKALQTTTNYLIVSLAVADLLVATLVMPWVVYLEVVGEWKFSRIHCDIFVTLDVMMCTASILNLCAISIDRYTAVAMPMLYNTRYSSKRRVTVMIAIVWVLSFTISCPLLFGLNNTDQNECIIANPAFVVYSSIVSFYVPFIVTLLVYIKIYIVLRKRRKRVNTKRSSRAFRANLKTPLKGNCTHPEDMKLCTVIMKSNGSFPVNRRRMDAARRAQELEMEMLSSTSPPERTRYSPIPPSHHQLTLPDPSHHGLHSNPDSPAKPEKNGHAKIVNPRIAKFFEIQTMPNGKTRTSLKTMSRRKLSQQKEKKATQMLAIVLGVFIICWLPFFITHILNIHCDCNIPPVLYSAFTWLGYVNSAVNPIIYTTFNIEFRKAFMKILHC
Chain of 5-hydroxytryptamine receptor 2A (P14842 whole entry): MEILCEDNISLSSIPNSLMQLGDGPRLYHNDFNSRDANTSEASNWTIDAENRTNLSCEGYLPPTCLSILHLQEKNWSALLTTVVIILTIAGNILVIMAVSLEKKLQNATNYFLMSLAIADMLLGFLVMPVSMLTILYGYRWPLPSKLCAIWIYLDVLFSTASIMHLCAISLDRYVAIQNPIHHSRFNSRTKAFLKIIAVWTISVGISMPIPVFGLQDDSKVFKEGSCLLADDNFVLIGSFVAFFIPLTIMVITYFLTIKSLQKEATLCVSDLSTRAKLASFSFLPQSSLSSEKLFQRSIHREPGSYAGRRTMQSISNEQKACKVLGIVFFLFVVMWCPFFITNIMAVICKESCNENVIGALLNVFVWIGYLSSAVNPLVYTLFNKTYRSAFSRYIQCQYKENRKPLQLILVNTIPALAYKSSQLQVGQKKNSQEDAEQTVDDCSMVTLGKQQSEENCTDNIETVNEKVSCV

Row | SMILES | Ki (D(2) dopamine receptor) | Ki [1] | Ki [2] | Ki [3] | LD50 [4] | Ki [5]
1 | Fc1ccc2c(C3CCN(CCCOc4ccc(-c5nc6ccccc6o5)cc4)CC3)noc2c1 | 22.1 nM | 8.3 nM | 95 nM | 186 nM | > 2000 mg/kg | 765 nM
2 | Fc1ccc2c(C3CCN(CCCOc4ccc(Cc5nc6ccccc6o5)cc4)CC3)noc2c1 | 10.6 nM | 2.7 nM | 3276 nM | 1990 nM | > 2000 mg/kg | 18.9 nM
